Assay results as given in patent US6083940A, “Method and composition for effecting contraception in a mammalian male” (SRI International, priority 1998, dated 2000).
Entries after “also recorded” stand apart in the source; their conditions may differ.

How the values were obtained:
[1] = biological target: T1, Rat Prostate Androgen Receptor (Rattus norvegicus, UniProt P15207); assay: Rat Prostate Androgen Receptor Competition Assay; type: binding; settings: for Relative Binding Affinity: 5α-DHT set at 100, conc. of 5αDHT at 50% binding inhibition/conc. competitor at 50% binding inhibition × 100; for Relative androgen receptor binding affinity: Table 3, repeats the values of Table 1; for affinity for the rat prostate androgen receptor compared with other known antiandrogens: in words
T1 construct: from tissue; host or cells: prostate cytosol (100,000×g supernatant) of gonadectomized male rats
T1 sequence (P15207 1-902): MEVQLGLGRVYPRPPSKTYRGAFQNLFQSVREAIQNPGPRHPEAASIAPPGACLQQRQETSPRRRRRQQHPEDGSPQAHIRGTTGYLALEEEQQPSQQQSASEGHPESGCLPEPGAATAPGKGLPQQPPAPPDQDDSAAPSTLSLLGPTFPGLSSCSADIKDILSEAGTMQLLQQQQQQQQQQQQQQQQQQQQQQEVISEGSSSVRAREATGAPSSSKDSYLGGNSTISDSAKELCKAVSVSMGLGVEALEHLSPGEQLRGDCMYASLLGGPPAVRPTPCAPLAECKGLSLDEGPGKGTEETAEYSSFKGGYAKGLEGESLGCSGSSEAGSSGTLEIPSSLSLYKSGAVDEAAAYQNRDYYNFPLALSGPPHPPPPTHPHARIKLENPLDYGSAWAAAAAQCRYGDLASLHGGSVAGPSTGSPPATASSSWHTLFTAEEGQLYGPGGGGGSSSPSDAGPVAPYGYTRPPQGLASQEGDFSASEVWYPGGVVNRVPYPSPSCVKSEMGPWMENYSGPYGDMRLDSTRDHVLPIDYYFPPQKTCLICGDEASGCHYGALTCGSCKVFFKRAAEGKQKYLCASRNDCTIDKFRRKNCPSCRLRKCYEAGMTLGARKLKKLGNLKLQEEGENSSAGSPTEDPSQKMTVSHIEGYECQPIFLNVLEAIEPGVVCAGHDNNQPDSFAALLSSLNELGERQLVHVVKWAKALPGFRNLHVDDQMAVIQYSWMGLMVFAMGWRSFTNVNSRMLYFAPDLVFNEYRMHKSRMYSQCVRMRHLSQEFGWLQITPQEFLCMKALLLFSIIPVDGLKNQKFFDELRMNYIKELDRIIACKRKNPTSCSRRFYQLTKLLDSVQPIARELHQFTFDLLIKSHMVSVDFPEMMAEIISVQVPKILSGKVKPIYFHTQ
Method: Male rats were gonadectomized 20-22 hours before killing. The animals were killed by decapitation and exsanguination. Prostates were kept on ice immediately after removal from the animals. After trimming off the fats, prostates were minced and homogenized in 3 volumes of Tris-HCl buffer (0.02 M, pH 7.4 containing 1.5 mM EDTA and 10% glycerol). The homogenate was centrifuged at 10,000×g for 10 minutes, and the resulting supernatant was centrifuged again at 100,000×g for 60 minutes. The final supernatant contained the androgen-binding receptor.
The mixture was brought up to 1.0 mL with Tris-HCl buffer used for homogenizing the tissue. The mixture was then incubated at 4° C. for 4 hr., with occasional shaking. At the end of incubation, the receptor-bound androgen was isolated by ammonium sulfate precipitation.
A 70% saturated ammonium sulfate solution was prepared and its pH is adjusted to 7.4 with aqueous NH3. To 1.0 mL of the labeled cytosol, 1.0 mL of the 70% saturated ammonium sulfate was added dropwise with gentle mixing. The sample was let stand at 0-4° C. for 35 minutes, then centrifuged at 10,000×g for 20 minutes. The precipitate was resuspended in 1.0 mL of the above-mentioned Tris-HCl buffer containing 2 mg of bovine albumin. The androgen-receptor complex was immediately reprecipitated by addition of equal volumes of 70% saturated ammonium sulfate. The sample was allowed to stand at 0-4° C. for another 45 minutes, then centrifuged again as outlined above. The supernatant was decanted and the walls of the tubes thoroughly dried with filter paper. The final precipitated protein was resuspended in 1.0 mL of the same buffer and then transferred quantitatively into a counting vial containing 10 mL of Scintisol for counting.

[2] = test system: SEX ACCESSORY GLANDS AND TESTES OF 22-DAY OLD CASTRATED MALE RATS; assay: Inhibition of Prostate Growth in Castrated Male Rats (testosterone supplemented); type: in vivo, rat; settings: for In Vivo Percent Inhibition of Ventral Prostate Weight: castrated male rats given supplemental testosterone; for Final BW / Seminal Vesicle weight / Ventral Prostate weight: ten days, mean ± SE; for inhibition of prostate growth stimulated by exogenous testosterone: male castrated rats, in words
Method: Male rats weighing 36 to 38 grams were castrated at the age of 22 days. […] The castrated rats were treated with the steroids once daily for ten consecutive days. On the tenth day following treatment, the rats were sacrificed and autopsied and final seminal vesicle weights and ventral prostate weights determined.

[3] = test system: 22 day old castrated male rats, seminal vesicle and ventral prostate; assay: standard Hershberger androgenic assay (agonist androgenic activity); type: in vivo, rat; settings: for dose response curves for androgenic activity: 22 day old castrated male rats; for agonist androgenic activity at the therapeutically effective antiandrogenic dose: by extrapolation to 30.0 mg, castrated male rat; for seminal vesicle weight (agonist androgenic activity) / ventral prostate weight (agonist androgenic activity): doses of 0.8 mg, 1.6 mg, and 3.2 mg, versus vehicle alone; for effect of drug dosage on prostate weight (FIG. 1): increasing dose, in words
[4] = test system: SEX ACCESSORY GLANDS AND TESTES OF INTACT SPRAGUE-DAWLEY MALE RATS; assay: Effect of Different Doses of Antiandrogen Compound III-1 on Sex Accessory Glands and Testes of Intact Sprague-Dawley Male Rats; type: in vivo, Sprague-Dawley rat; settings: for Body Weight / Epididymus weight / Seminal Vesicle weight / Ventral Prostate weight / Testes weight: N=4, mean ± SE; for Seminal Vesicle weight: P < .005; for Ventral Prostate weight: P < .01
Excerpt: The foregoing procedures were used to evaluate the effect of antiandrogen compound III-1 on the sex accessory glands and tests of intact Sprague-Dawley male rats. As may be seen in the Table, […], indicating antagonism on the effect of the testosterone produced.
^a Administered subcutaneously once daily for 12 days

[5] = test system: rat ventral prostate explant cultures (prostatein C3 mRNA); assay: Measurement of Prostatein C3 mRNA in rat ventral prostate explant culture
Excerpt: Testosterone was used as a control. […] Addition of androgens to the medium of rat prostate explant cultures maintains the mRNA for C3 subunit of prostatein, and measurement of either prostatein or its C3 subunit mRNA serves as a sensitive, androgen-responsive marker for the explant system.

[6] = compound 30.0 mg/day + testosterone propionate 0.6 mg/day
[7] = 10 mg/day subcutaneously once daily for 12 days, statistically lower than control
[8] = 30 mg/day subcutaneously once daily for 12 days, statistically lower than control, P < .001
[9] = 30 mg/day subcutaneously once daily for 12 days, statistically lower than control
[10] = III-1 2500 nM with dihydrotestosterone 25 nM, N=2
[11] = dihydrotestosterone 25 nM alone, N=3
[12] = testosterone propionate 0.6 mg/day alone, N=5

For `C#C[C@]1(O)CC[C@H]2[C@@H]3CC[C@H]4Cc5nn(S(C)(=O)=O)cc5C[C@]4(C)[C@H]3CC[C@@]21C` [Win 49,596, zanoterone, reference compound], the “Relative Binding Affinity” value [1] was 2.2 and the “Relative androgen receptor binding affinity” value [1] was 2.2.

In the case of `CCC[C@]1(O)CC[C@H]2[C@@H]3CCC4=CC(=O)CCC4=C3CC[C@@]21C` [Compound II-1, 17α-Propylestra-4,9-dien-17β-ol-3-one], the “Relative Binding Affinity” value [1] is reported as 5.7, the “Relative androgen receptor binding affinity” value [1] is reported as 5.7 and the “affinity for the rat prostate androgen receptor compared with other known antiandrogens” value [1] is reported as “higher affinity for the androgen rat prostate receptor than all of the other known antiandrogens except cyproterone acetate; also recorded: higher affinity for the rat ventral prostate androgen receptor than the steroidal antiandrogen zanoterone (WIN®49,596); also recorded: higher affinity to the androgen receptor than three other nonsteroidal antiandrogen receptor antagonists flutamide, which is available as an antiandrogen in the United States, nilutamide, developed by Roussel in France, and Casodex® (ICI 176,334)”. The “In Vivo Percent Inhibition of Ventral Prostate Weight” value (“In Vivo Percent Inhibition” for short) [2] was 18.8 ± 5.74%, the “Final BW” value [2, 6] was 88 ± 5 g and the “Seminal Vesicle weight” value [2, 6] was 28.2 ± 2.8 mg. The “Ventral Prostate weight” value [2, 6] was 45.3 ± 2.5 mg, the “inhibition of prostate growth stimulated by exogenous testosterone” value [2] was “inhibit prostate growth stimulated by exogenous testosterone” and the “dose response curves for androgenic activity” value [3] was “Very flat dose response curves”. The “agonist androgenic activity at the therapeutically effective antiandrogenic dose” value [3] was “essentially devoid of agonist androgenic activity”, the “seminal vesicle weight (agonist androgenic activity)” value [3] was “equal to the vehicle alone controls” and the “ventral prostate weight (agonist androgenic activity)” value [3] was “equal to the vehicle alone controls”. The “effect of drug dosage on prostate weight (FIG. 1)” value (“effect of drug dosage” for short) [3] was “fairly steady prostate weight, even at higher doses”.

For `C[C@]12Cc3nonc3C[C@@H]1CC[C@@H]1[C@@H]2CC[C@@]2(C)[C@H]1CC[C@@]21CCCO1` [Compound III-1, 2',3'α-Tetrahydrofuran-2'-spiro-17-(5α-androstan(2,3-c]furazan], the “Relative Binding Affinity” value [1] was 5.8, the “Relative androgen receptor binding affinity” value [1] was 5.8 and the “affinity for the rat prostate androgen receptor compared with other known antiandrogens” value [1] was “higher affinity for the androgen rat prostate receptor than all of the other known antiandrogens except cyproterone acetate; also recorded: higher affinity for the rat ventral prostate androgen receptor than the steroidal antiandrogen zanoterone (WIN®49,596); also recorded: higher affinity to the androgen receptor than three other nonsteroidal antiandrogen receptor antagonists flutamide, which is available as an antiandrogen in the United States, nilutamide, developed by Roussel in France, and Casodex® (ICI 176,334)”. For the same compound, the “In Vivo Percent Inhibition” value [2] was 32.2 ± 9.49%, the “Final BW” value [2, 6] was 89 ± 5 g and the “Seminal Vesicle weight” value [2, 6] was 22.5 ± 1.1 mg. For the same compound, the “Ventral Prostate weight” value [2, 6] was 39.5 ± 4.1 mg, the “inhibition of prostate growth stimulated by exogenous testosterone” value [2] was “inhibit prostate growth stimulated by exogenous testosterone” and the “Body Weight” value ([4]; 10 mg/day subcutaneously once daily for 12 days, not statistically different from control) was 295 ± 5 g. For the same compound, the Epididymus weight ([4]; 10 mg/day subcutaneously once daily for 12 days, statistically lower than control, P < .001) was 524 ± 48 mg, the “Seminal Vesicle weight” value [4, 7] was 225 ± 40 mg and the “Ventral Prostate weight” value [4, 7] was 170 ± 13 mg. The Testes weight ([4]; 10 mg/day subcutaneously once daily for 12 days, statistically lower than control, P < .02) was 2.552 ± 111 g, the Epididymus weight [4, 8] was 458 ± 39 mg and the Testes weight [4, 8] was 1.942 ± .062 g. The “Seminal Vesicle weight” value [4, 9] was 242 ± 61 mg, the “Ventral Prostate weight” value [4, 9] was 148 ± 28 mg and the “Body Weight” value ([4]; 30 mg/day subcutaneously once daily for 12 days, statistically lower than control, P < .05) was 277 ± 9 g. For the same compound, the “magnitude of prostatic growth inhibition, dose dependence” value ([4]; Table 4, tentative conclusion) was “appears to be dose dependent”, the “dose response curves for androgenic activity” value [3] was “Very flat dose response curves” and the “agonist androgenic activity at the therapeutically effective antiandrogenic dose” value [3] was “essentially devoid of agonist androgenic activity”. The “seminal vesicle weight (agonist androgenic activity)” value [3] was “equal to the vehicle alone controls”, the “ventral prostate weight (agonist androgenic activity)” value [3] was “equal to the vehicle alone controls” and the “effect of drug dosage” value [3] was “fairly steady prostate weight, even at higher doses”. For the same compound, the “C3/28s × 100, percent of dihydrotestosterone” value [5, 10] was 62%, the “C3 m-RNA, percent of dihydrotestosterone” value [5, 10] was 43% and the “C3 m-RNA” value ([5]; III-1 2500 nM with dihydrotestosterone 25 nM, N=2, 30 disks/explant, printed spread ± 1,603) was 95,130. For the same compound, the “C3/28s × 100” value ([5]; III-1 2500 nM with dihydrotestosterone 25 nM, N=2, printed spread ± 0.8) was 91.8 and the anti-androgenic activity ([5]; III-1/dihydrotestosterone formulation, in words) was “marked anti-androgenic activity”.

In the case of `CC(=O)O[C@]1(C(C)=O)CC[C@H]2[C@@H]3C=C(Cl)C4=CC(=O)[C@@H]5C[C@@H]5[C@]4(C)[C@H]3CC[C@@]21C` [Cyproterone acetate, reference compound], the “In Vivo Percent Inhibition” value [2] is reported as 54.3 ± 8.34%, the “Seminal Vesicle weight” value [2, 6] is reported as 9.8 ± 0.8 mg and the “Ventral Prostate weight” value [2, 6] is reported as 30.0 ± 3.6 mg.

With `C[C@]12CC[C@H]3[C@@H](CCC4=CC(=O)CC[C@@]43C)[C@@H]1CC[C@@H]2O` [testosterone, reference compound] the “effect of drug dosage” value [3] was “proportionate rise in prostate weight with increasing dose”.

For `C[C@]12CCC(=O)C[C@@H]1CC[C@@H]1[C@@H]2CC[C@]2(C)[C@@H](O)CC[C@@H]12` [5α-Dihydrotestosterone, reference compound], the “C3/28s × 100, percent of dihydrotestosterone” value [5, 11] was 100%, the “C3 m-RNA, percent of dihydrotestosterone” value [5, 11] was 100% and the “C3 m-RNA” value ([5]; dihydrotestosterone 25 nM alone, N=3, 30 disks/explant, printed spread ± 32,675) was 219,371. The “C3/28s × 100” value ([5]; dihydrotestosterone 25 nM alone, N=3, printed spread ± 26.9) was 148.9.

For `CCC(=O)O[C@H]1CC[C@H]2[C@@H]3CCC4=CC(=O)CC[C@]4(C)[C@H]3CC[C@]12C` [Testosterone propionate, reference compound], the “Final BW” value [2, 12] was 86 ± 4 g, the “Seminal Vesicle weight” value [2, 12] was 26.6 ± 34 mg and the “Ventral Prostate weight” value [2, 12] was 53.4 ± 5.8 mg.

In the case of `CC(C)(O)C(=O)Nc1ccc([N+](=O)[O-])c(C(F)(F)F)c1` [Hydroxyflutamide, reference compound], the “Relative Binding Affinity” value [1] is reported as 2.6 and the “Relative androgen receptor binding affinity” value [1] is reported as 2.6.
